From patent US10781162B2 (UCL BUSINESS Ltd, priority 2016, dated 2020)

Experiments:
[1] = In vitro dissolution and aqueous solubility study in distilled water
Experimental: The dissolution experiment was carried out in triplicate on both the diethyl tetrathiomolybdate salt and the ammonium tetrathiomolybdate salt.

[2] = H2S gas detection assay (H2S gas release in PBS); type: physicochemical; conditions: for quantity of H2S gas released under standard conditions: PBS, pH 7.4, 37° C., incubation 1 hour, FIG. 12A
Source text: A, B and C denote the synthetic route of manufacture of DEA-TTM, with respect to FIG. 6.
If the sample is drawn in the latter part of the 10-second bin, the second or third reading may be the highest. A direct correlation ([…], straight line model, r^2=0.992; see FIG. 11) was observed on comparing the peak H2S value against the sum of the washout readings (decay) over time (area under curve, AUC). As the time to washout and the sum of values therein are directly proportional to the peak quantity of gas initially detected, it is appropriate to consider only the peak H2S gas level to determine the total amount of H2S gas release.
Initial testing of DEA-TTM salts A, B and C was carried out under standard conditions (dissolution in PBS, pH 7.4, incubation for 1 hour). […] Acidic conditions are shown to favour sulfide release.

[3] = Experimental: The in vitro dissolution and aqueous solubility behaviour at 25° C. was also investigated for the DEA-TTM salts synthesised by routes A, B and C as outlined in Example 1.5 above (Almac Sciences, Northern Ireland).

[NH4+].[NH4+].[SH-].[SH-].[S]=[Mo]=[S] [ATTM, ammonium tetrathiomolybdate]
solubility in distilled water [1]: ca. 2 mg/ml | dissolution time ([1]; distilled water): over 1 hour | thiol dependence of H2S release (increase, in words) ([2]; for reference): six-fold increase | solubility in water at 25° C. [3]: 2000 µg/mL

CC[NH2+]CC.CC[NH2+]CC.[S]=[Mo](=[S])([S-])[S-] [diethylamine tetrathiomolybdate]
quantity of H2S gas released under standard conditions ([2]; listed as salt B): released the least H2S gas | quantity of H2S gas released under standard conditions ([2]; listed as salt C): released the most H2S gas
